Measured values taken from patent US10780072B2, “Methods for inhibiting conversion of choline to trimethylamine (TMA)” (The Procter & Gamble Company, priority 2015, dated 2020).

Test system: Proteus mirabilis 29906 (Pm) lysate
Assay: Inhibition of TMA formation from choline (d9-choline to d9-TMA) in Proteus mirabilis lysate, LC-MS/MS
Assay type: biochemical
Settings: Pm lysate 1.5 mg/mL protein, 50 μM d9-choline chloride, 37° C. for two hours; read-out: TMA Inhibition (IC50, mol/L)

Compound	IC50 [µM]
CC(C)CN=C=S [Compound 12, Isobutyl isothiocyanate]	74.5
CCC(C)N=C=S (stereo not drawn) [Compound 10, sec-butyl isothiocyanate]	129
S=C=NCC1CCCCC1 [Compound 8, Cyclohexyl- methyl isothiocyanate]	210
CC(C)CCN=C=S [Compound 16, 1-isothio-cyanato-3-methyl-butane]	66.1
CCOC(=O)CN=C=S [Compound 36, Ethyl isothio- cyanato- acetate]	3.98
CN(C)CCN=C=S [Compound 42, 2-Isothio-cyanato-N,N-dimethyl-ethanamine]	7.67
Ethyl isothiocyanate [Compound 11]	28.6
CC(C)(C)OC(=O)NCCCCN=C=S [Compound 22, N-Boc-4-isothio-cyanatobutyl-amine]	65.2
CC(C)(C)N=C=S [Compound 2, tert-Butyl isothiocyanate]	5480
CSc1ccc(N=C=S)cc1 [Compound 4, 4-(Methylthio) phenyl isothiocyanate]	73.4
CCN(CC)CCN=C=S [Compound 40, Ethanamine, N,N-diethyl-2-isothio-cyanato]	8.81
CCCCCN=C=S [Compound 6, 1-pentyl isothiocyanate]	41.4
S=C=Nc1cccc2ccccc12 [Compound 19, 1-Naphthyl isothiocyanate]	2080
Cc1cccc(N=C=S)c1 [Compound 3, m-Tolyl isothiocyanate]	248
C[N+](C)(C)CCN=C=S [Compound 45, 2-Isothio-cyanato-N,N,N-trimethyl-ethana-minium iodide]	1.28
S=C=NCCc1ccc(Cl)cc1 [Compound 9, 2-(4-Chloro-phenethyl) isothiocyanate]	30
S=C=NCCN1CCOCC1 [Compound 25, 2-(4-Morpholino) ethyl isothiocyanate]	13.4
CCc1ccc(N=C=S)cc1 [Compound 31, 4-Ethylphenyl isothiocyanate]	383
S=C=NCCN1CCCCC1 [Compound 35, 2-Piperidino-ethyl isothiocyanate]	14.3
C[C@H](N=C=S)c1ccccc1 [Compound 26, (S)-(+)-alpha- Methylbenzyl isothiocyanate]	20.9
S=C=Nc1ccc(Br)cc1 [Compound 20, 4-Bromo-phenyl isothiocyanate]	88.8

Compound	IC50 [µM]
COc1ccccc1N=C=S [Compound 32, 2-Methoxy-phenyl isothiocyanate]	188
CC(C)(C)OC(=O)Nc1ccc(N=C=S)cc1 [Compound 23, N-Boc-4-isothio-cyanatoaniline]	2530
S=C=NC1CCCCC1 [Compound 30, Cyclohexyl isothiocyanate]	56.1
O=C(N=C=S)c1ccccc1 [Compound 21, Benzoyl isothiocyanate]	196
S=C=NC(c1ccccc1)c1ccccc1 [Compound 38, Benzhydryl isothiocyanate]	1560
CN(C)CCCN=C=S [Compound 41, 3-isothio-cyanato-N,N-dimethyl-1-Propanamine]	11.5
CCCCCC12CCC(C(=O)Oc3ccc(N=C=S)cc3)(CC1)CC2 [Compound 37, 4-Isothio-cyanato-phenyl 4-pentyl-bicyclo [2.2.2] octane-1-carboxylate]	48900
CCN(CC)CCCN=C=S [Compound 7, 3-(Diethyl-amino) propyl isothiocyanate]	1.56
CC(=O)O[C@H]1[C@H](OC(C)=O)[C@@H](N=C=S)OC[C@H]1OC(C)=O [Compound 39, 2,3,4-Tri-O-acetyl-α-D-arabino-pyranosyl isothiocyanate]	220
COc1ccc(OC)c(N=C=S)c1 [Compound 33, 2,5-Di-methoxy-phenyl isothiocyanate]	152
COc1ccc(C)cc1N=C=S [Compound 1, 2-Methoxy-5-methylphenyl isothiocyanate]	745
COc1cccc(N=C=S)c1 [Compound 34, 3-Methoxy-phenyl isothiocyanate]	88.3
S=C=Nc1ccc(Cl)cc1 [Compound 27, 4-Chloro-phenyl isothiocyanate]	108
CC(C)N=C=S [Compound 15, Isopropyl isothiocyanat]	98.2
S=C=Nc1ccccc1 [Compound 18, Phenyl isothiocyanate]	120
CCC(C)CN=C=S (stereo not drawn) [Compound 44, Butane, 1-isothio-cyanato-2-methyl-]	105
S=C=NCCCN1CCOCC1 [Compound 24, 3-(4-Morpholino) propyl isothiocyanate]	15.7
S=C=NC1CC2CCC1C2 (stereo not drawn) [Compound 29, exo-2-Norbornyl-isothiocyanate]	48.2
Methyl isothiocyanate [Compound 14]	20
CCCCN=C=S [Compound 13, Butyl isothiocyanate]	50.4
S=C=NCc1ccccc1 [Compound 5, Benzyl isothiocyanate]	3.03
